Results from patent publication US8258099B2, “Pin1-modulating compounds and methods of use thereof” (Max-Planck-Gesellschaft zur Foerderung der Wissenschaften …, priority 2004, dated 2012).
Square brackets hold non-standard residues; d marks the D form. Peptide text beside a SMILES is read from it. d(pT) = C[C@H](OP(=O)(O)O)[C@@H](N)C(=O)O; 2Nal = N[C@@H](Cc1ccc2ccccc2c1)C(=O)O; Pip = O=C(O)[C@@H]1CCCCN1

Columns and labels:
X. laevis embryos = experiment: Microinjection in X. laevis embryos, cell division; assay type: in vivo; conditions: for number of vital embryos: 5 hours
Experimental: FIG. 8 depicts the blocking of cell division by the injection of peptide 17 in X. laevis embryos. 50-300 pmol of peptide 17 or 300 pmol of its nonphosphorylated derivative (control) dissolved in 10 nl PBS buffer were microinjected in the animal half of X. laevis embryos at stage 2 of development. Embryos with large and/or apoptotic appearing cells surrounded by normally developing cells were counted after further 5 hours (stage 8-9) of development. […] Each value is the average of four independent experiments.
FIGS. 9A-F depicts phenotypic analysis of X. laevis embryos after injection of peptide 17. 300 pmol of peptide 17 or its nonphosphorylated derivative dissolved in 10 nl PBS buffer were injected in the animal half of X. laevis embryos at stage 2 of development. 1.5 hour at stage 6 (A), 2.5 hours at stage 7 (B) and 4-5 hours at stage 8-9 (C, D) after injection enlarged cells became visible. Cells that are blocked in cell division are marked with a white arrow. Controls of uninjected embryos of stage 8-9 and embryos that were injected with 300 pmol of the nonphosphorylated derivative of peptide 17 are shown in panels E and F. The site where the nonphosphorylated derivative of peptide 17 was injected is marked with a white arrow (F).
FIGS. 10A-D depict the rescue of peptide 17 caused cell division block in X. laevis embryos by hPin1 (A, B) and different hPin1 variants (C, D). FIG. 10A depicts the time course of V5-tagged hPin1 expression was analyzed by preparation of X. laevis embryo lysate 1, 2 and 4 hours after injection of 1, 2 or 3 ng of V5-tagged hPin1 mRNA. In every case, the injected volume was 10 nl. Lysates were prepared in lysis buffer containing phosphatase and protease inhibitors. Samples were separated by SDS PAGE followed by western blotting. Endogenous XlPin1 and V5-tagged hPin1 were detected using an anti hPin1 PPIase domain antiserum as primary antibody followed by incubation with a horseradish peroxidase-conjugated secondary antibody. Visualization was done using the SuperSignal® substrate. […] In every case, the whole volume of injection was 10 nl. The indicated amount of the mRNA was injected in the animal half of 30 embryos at stage 2 of development. Embryos with large and/or apoptotic appearing cells surrounded by normally developed cells were counted after additional 5 hours of development (stage 8-9). […] Each percentage of vital embryos shown in the figure is the average of four independent experiments. FIG. 10C indicates the expression of V5-tagged hPin1 variants was evaluated by preparation of embryo lysate after 4 hours of injection of the respective mRNA (2 ng) in X. laevis embryos. Lysates were prepared in lysis buffer containing phosphatase and protease inhibitors. Samples were separated using SDS PAGE followed by western blot analysis. Endogenous XlPin1 and injected V5-tagged hPin1 variants were detected using an anti hPin1 PPIase domain antiserum as primary antibody and a horseradish peroxidase-conjugated secondary antibody. Visualization was done by a chemiluminescent reaction using the SuperSignal® substrate (Pierce). FIG. 10D depicts 250 pmol of peptide 17 was coinjected with 2 ng mRNA of the indicated V5-tagged hPin1 variant (whole volume 10 nl) in the animal half of 30 X. laevis embryos at stage 2 of development. Results were analyzed as described for FIG. 10B. Each percentage of vital embryos shown in the figure is the average of four independent experiments.
Microinjection was done into the animal half of X. laevis embryos at stage 2 of development. In every case, the injection volume was 10 nl. Immunofluorescence studies of frozen X. laevis embryo sections were performed as previously described (Julius et al., 2000). Ten-micrometer cryosections of stage 8 embryos were labelled using a monoclonal anti hPin1 antibody (mouse) followed by incubation with Alexa Fluor 546™-conjugated anti mouse antibody of goat serum (Molecular Probes). […]

full length hPin1 = target: T1, full length hPin1 (Homo sapiens, UniProt Q13526); experiment: Isothermal titration calorimetry (ITC), full length hPin1; assay type: binding
T1 construct: The protease free assay ensures reliable measurement of IC50 values for the full-length hPin1
Experimental: FIGS. 3A-B depicts a thermodynamic characterization of the binding of peptide 17 towards full length hPin1 by isothermal titration calorimetry (ITC). FIG. 3A depicts peaks that represent the heat evolved after injection of peptide 17 into the sample cell containing hPin1. After the 11th injection only the heat of dilution is observed. The experiment was performed at 10 C. FIG. 3B depicts integrals of the corresponding peaks of panel A are plotted against the molar ratio of peptide 17 and hPin1. The solid line represents a nonlinear least squares fit analysis of the binding heat assuming a single binding site model with the following parameters: ΔHbind=−4561±36 cal/mol, TΔSbind=5433±529 cal/mol, n=0.96 (binding stoichiometry) and KAss=5.18×10^7±7×10^6 M^−1 (association constant).
Calorimetric experiments were performed using a VP-ITC titration calorimeter (MicroCal, Inc, Northampton, Mass.) at 10° C. All solutions were degassed under vacuum prior to use. Solutions of hPin1 and hPin1 PPIase domain were dialyzed against 10 mM Hepes (pH 7.8). The protein concentration in the sample cell was adjusted to 6.5 μM using the same batch of buffer. Protein concentrations were determined as described above. The volume of the protein solution in the sample cell was 1.4 ml. The injection syringe was filled with 300 μl solution of peptide 17 (see table III) (250 μM in the same batch of buffer as used for dialyses). Each titration experiment consisted of a single 1 μl injection followed by 16 identical injections of 5 μl solution of peptide 17.
In principle, minimally four forms of a competing substrate in the presence of hPin1 have to be considered, the free cis and trans isomers together with two Michaelis complexes. This four-site exchange model of PPIase catalysis involves understanding predisposing factors of the stability of hPin1/substrate complexes, expected to be weaker, than the stability for those formed by phosphopeptides lacking substrate properties. The consequent increase in inhibitory potency could be realized by a transition state destabilizing substitution in peptide 15. Previous studies have shown that following C^α-stereocenter inversion of a substrate at the P1 position the parvulins fully retain substrate-like active site affinity for the derivatives while catalytic rate acceleration is abolished (Schiene et al., 1998). […] To optimize solute diffusion after mechanical injection of the Pin1 binding peptides into the viscous Xenopus laevis egg cytosol, the molecular weight of 1376.5 for peptide 16 was reduced to 823.8 for peptide 17. Following chain truncation peptide 17 maintained high affinity for Pin1 (Table III). To ensure domain selectivity, the binding of peptide 17 towards hPin1 was characterized using the isothermal titration calorimetry (ITC). […] The dissociation constant determined with ITC is in the same range as obtained in the protease-free PPIase assay (Table III).

[1] = ITC, 10° C., single binding site model

T1 sequence (Q13526 whole entry): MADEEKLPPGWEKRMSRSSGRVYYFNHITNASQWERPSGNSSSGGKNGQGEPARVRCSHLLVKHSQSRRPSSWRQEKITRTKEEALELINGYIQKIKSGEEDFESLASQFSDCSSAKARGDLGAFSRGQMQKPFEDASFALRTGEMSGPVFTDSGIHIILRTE

In the case of `CC(=O)N[C@@H](Cc1ccccc1)C(=O)N[C@@H](C(=O)N1CCCC[C@H]1C(=O)N[C@@H](Cc1ccc2ccccc2c1)C(=O)N[C@@H](CCC(N)=O)C(N)=O)[C@H](C)OP(=O)(O)O` [Peptide 17, Ac-Phe-D-Thr(PO3H2)-Pip-Nal-Gln-NH2] (Ac-F[d(pT)][Pip][2Nal]Q-NH2), the “number of vital embryos” value (X. laevis embryos; 250 pmol peptide 17, coinjection of 2 ng of V5-tagged hPin1 mRNA) is reported as “up to 73%”, the “number of vital embryos” value (X. laevis embryos; 250 pmol peptide 17, without coinjection of mRNA) is reported as 18% and the “normal embryos after microinjection” value (X. laevis embryos; 300 pmol, stage 2 embryos, examined 5 hours after injection) is reported as “very low number of normal embryos”. The “effect on development of the embryos” value (X. laevis embryos; microinjection at stage 2) was “cell cycle blockage and embryonic death”, the Kd (full length hPin1) was 19.3 ± 2.6 nM and the “KAss (association constant)” value (full length hPin1; [1]) was 5.18e+07 ± 7e+06 M⁻¹. For the same compound, the “binding enthalpy ΔHbind” value (full length hPin1; [1]) was -4.561 ± 0.036 kcal/mol, the “binding entropy TΔSbind” value (full length hPin1; [1]) was 5.433 ± 0.529 kcal/mol and the “n (binding stoichiometry)” value (full length hPin1; [1]) was 0.96. For the same compound, the “fold tighter binding of D isomer compared to L isomer” value (full length hPin1; Pin1) was 30 fold.
